This note sets out measurements from ChEMBL document CHEMBL5725743, “Benzamide imidazopyrazine Btk inhibitors” (2018).

The structures appear in SMILES notation.

For this experiment, the target named is Tyrosine-protein kinase BTK (Homo sapiens, UniProt Q06187). The experiment in a line: Btk Enzyme Activity Assay: BTK enzymatic activity was determined with the LANCE (Lanthanide Chelate Excite) TR-FRET (Time-resolved fluorescence resonance energy transfer) assay. […] Phosphorylation reactions were allowed to proceed for 120 minutes. […] After 60 minutes incubation with detection reagents, reaction plates were read on a PerkinElmer EnVision plate reader using standard TR-FRET protocol. […] IC50 values were determined by 4 parameter robust fit of TR-FRET ratio values vs. (Log10)) compound concentrations. A general note: TR-FRET usually uses a lanthanide donor and a delayed reading to cut background.
Sequence of Tyrosine-protein kinase BTK (Q06187 whole entry): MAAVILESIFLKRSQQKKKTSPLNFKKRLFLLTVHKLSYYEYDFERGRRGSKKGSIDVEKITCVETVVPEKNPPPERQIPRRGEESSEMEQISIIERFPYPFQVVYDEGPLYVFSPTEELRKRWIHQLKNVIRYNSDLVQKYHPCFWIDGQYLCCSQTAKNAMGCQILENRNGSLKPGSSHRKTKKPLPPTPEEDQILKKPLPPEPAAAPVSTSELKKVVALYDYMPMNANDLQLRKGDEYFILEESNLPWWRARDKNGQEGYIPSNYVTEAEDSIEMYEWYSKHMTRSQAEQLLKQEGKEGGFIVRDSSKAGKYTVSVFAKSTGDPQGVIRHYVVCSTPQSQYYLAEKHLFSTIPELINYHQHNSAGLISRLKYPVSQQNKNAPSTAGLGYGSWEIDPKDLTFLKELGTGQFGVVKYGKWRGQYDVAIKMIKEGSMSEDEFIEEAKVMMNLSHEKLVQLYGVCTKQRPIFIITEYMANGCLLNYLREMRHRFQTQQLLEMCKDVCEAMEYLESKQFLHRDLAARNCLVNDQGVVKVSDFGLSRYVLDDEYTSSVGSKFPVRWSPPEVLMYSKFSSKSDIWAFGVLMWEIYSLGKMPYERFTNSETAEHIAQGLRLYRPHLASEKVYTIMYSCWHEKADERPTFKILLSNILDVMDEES

Usually IC50 stands for the concentration needed to halve the response being measured. For `Nc1nccn2c([C@@H]3CC[C@@H](CC(=O)O)C3)nc(-c3ccc(C(=O)Nc4cc(C(F)(F)F)ccn4)cc3)c12`, the IC50 amounted to 0.16 nM.
